The Bradley open melting point set (2014)

Row | Structure (SMILES) | melting point [°C]
1 | O=[N+]([O-])c1ccc(/N=N/c2c(O)ccc3ccccc23)cc1 [1-(4-nitrophenylazo)-2-naphthol] | 250
2 | N#CCC(=O)N1CCCC1 [1-(cyanoacetyl)pyrrolidine] | 73
3 | O=C(O)C1(C(F)(F)F)CCCCC1 [1-(trifluoromethyl)cyclohexanecarboxylic acid] | 70
4 | Nc1c(Br)cc(Br)c2c1C(=O)c1ccccc1C2=O [1-Amino-2,4-dibromo-9,10-anthraquinone] | 226
5 | Cc1ccc(Br)cc1 [1-Bromo-4-methylbenzene] | 28.5
6 | O=[N+]([O-])c1ccc(Cl)c([N+](=O)[O-])c1 [1-Chloro-2,4-dinitrobenzene] | 53
7 | Cc1cccc(Cl)c1 [1-Chloro-3-methylbenzene] | -48
8 | O=[N+]([O-])c1ccc(Cl)cc1 [1-Chloro-4-nitrobenzene] | 83.6
9 | CCCCCl [1-Chlorobutane] | -123
10 | CCCCCCCl [1-Chlorohexane] | -94
11 | O=[N+]([O-])c1ccc(F)c([N+](=O)[O-])c1 [1-Fluoro-2,4-dinitrobenzene] | 27
12 | COc1cc(Cl)c(Cl)c(Cl)c1Cl [1-Methoxy-2,3,4,5-tetrachlorobenzene] | 88
13 | COc1ccc([N+](=O)[O-])cc1 [1-Methoxy-4-nitrobenzene] | 48
14 | O=C(O)c1cccc2ccccc12 [1-Naphthoic acid] | 162
15 | O=[N+]([O-])c1cccc2ccccc12 [1-Nitronaphthalene] | 61.5
16 | FC(F)(F)c1cc(-n2cccc2)cc(C(F)(F)F)c1 [1-[3,5-bis(trifluoromethyl)phenyl]pyrrole] | 42
17 | Cc1ccc(N=Nc2c(O)ccc3ccccc23)c([N+](=O)[O-])c1 [1-[(4-Methyl-2-nitrophenyl)diazenyl]-2-naphthol] | 271
18 | OCCC12CC3CC(CC(C3)C1)C2 [1-adamantaneethanol] | 74
19 | NC12CC3CC(CC(C3)C1)C2 [1-adamantylamine] | 180
20 | CCCCN [1-aminobutane] | -49
21 | CCCCCCCCN [1-aminooctane] | 0
22 | Clc1cccc(Cl)c1Br [1-bromo-2,6-dichlorobenzene] | 66
23 | Fc1cc(I)ccc1Br [1-bromo-2-fluoro-4-iodobenzene] | 36

Row | Structure (SMILES) | melting point [°C]
24 | Clc1cc(Cl)cc(Br)c1 [1-bromo-3,5-dichlorobenzene] | 75
25 | Brc1cccc(I)c1 [1-bromo-3-iodobenzene] | -9
26 | Fc1ccc(Br)cc1 [1-bromo-4-fluorobenzene] | -16
27 | O=[N+]([O-])c1ccc(Br)cc1 [1-bromo-4-nitrobenzene] | 126
28 | CCCCBr [1-bromobutane] | -112
29 | CCCCCCCBr [1-bromoheptane] | -56
30 | CCCCCCBr [1-bromohexane] | -85
31 | O=[N+]([O-])c1ccc(Cl)c([N+](=O)[O-])c1 [1-chloro-2,4-dinitrobenzene] | 53
32 | Fc1ccc(Cl)cc1 [1-chloro-4-fluorobenzene] | -22
33 | O=[N+]([O-])c1ccc(Cl)cc1 [1-chloro-4-nitrobenzene] [listing 1 of 2 here] | 84
34 | O=[N+]([O-])c1ccc(Cl)cc1 [1-chloro-4-nitrobenzene] [listing 2 of 2 here] | 84
35 | O=C1c2ccccc2C(=O)c2c(Cl)cccc21 [1-chloroanthraquinone] | 160
36 | CCCCCl [1-chlorobutane] | -123
37 | CCCCCCCCCCCl [1-chlorodecane] | -31
38 | CCCCCCCCCCCCCCCCCl [1-chlorohexadecane] | 9
39 | CCCCCCCl [1-chlorohexane] | -94
40 | O=C(O)C1=CCCCC1 [1-cyclohexene-1-carboxylic acid] | 32
41 | O=c1ncnc2n(C3CCCCC3)[nH]cc1-2 [1-cyclohexyl-1,2-dihydro-4H-pyrazolo[3,4-d]pyrimidin-4-one] | 252
42 | C#CC1(O)CCCCC1 [1-ethynylcyclohexanol] | 32
43 | O=[N+]([O-])c1ccc(F)c([N+](=O)[O-])c1 [1-fluoro-2,4-dinitrobenzene] | 27
44 | CCCCCCI [1-iodohexane] | -75
45 | O=C=Nc1cccc2ccccc12 [1-naphthyl isocyanate] | 4

Results, then the compound that gave them:

Row | melting point [°C] | Structure (SMILES)
46 | 32 | CCCCCCCCCCS(=O)(=O)Cl [1-decanesulfonyl chloride]
47 | 7 | CCCCCCCCCCO [1-decanol]
48 | 41 | CCCCCCCCCCCCS(=O)(=O)Cl [1-dodecanesulfonyl chloride]
49 | -7 | CCCCCCCCCCCCS [1-dodecanethiol]
50 | -35 | C=CCCCCCCCCCC [1-dodecene]
51 | 58 | CCCCCCCCCCCCCCCCCO [1-heptadecanol]
52 | 4 | C=CCCCCCCCCCCCCCC [1-hexadecene]
53 | -80 | CCCCCCS [1-hexanethiol]
54 | -140 | C=CCCCC [1-hexene] [listing 1 of 2 here]
55 | -140 | C=CCCCC [1-hexene] [listing 2 of 2 here]
56 | 159 | Cc1c(C#N)c2ccccc2n1O [1-hydroxy-2-methyl-1H-indole-3-carbonitrile]
57 | 105 | CC1(C)C(=O)NC(=O)N1CO [1-hydroxymethyl-5,5-dimethylhydantoin]
58 | 51 | O=[N+]([O-])c1ccccc1I [1-iodo-2-nitrobenzene]
59 | 37 | O=[N+]([O-])c1cccc(I)c1 [1-iodo-3-nitrobenzene]
60 | 88 | COc1cc(Cl)c(Cl)c(Cl)c1Cl [1-methoxy-2,3,4,5-tetrachlorobenzene]
61 | 65 | Cn1nnc2ccccc21 [1-methyl-1h-benzotriazole]
62 | -62 | CCc1ccc(C)cc1 [1-methyl-4-ethylbenzene]

Row | melting point [°C] | Structure (SMILES)
63 | 26 | CC1(O)CCCCC1 [1-methylcyclohexanol]
64 | -120 | CC1=CCCCC1 [1-methylcyclohexene] [listing 1 of 2 here]
65 | -120 | CC1=CCCCC1 [1-methylcyclohexene] [listing 2 of 2 here]
66 | 85 | Cc1cccc2c1Cc1ccccc1-2 [1-methylfluorene] [listing 1 of 2 here]
67 | 85 | Cc1cccc2c1Cc1ccccc1-2 [1-methylfluorene] [listing 2 of 2 here]
68 | -22 | Cc1cccc2ccccc12 [1-methylnaphthalene]
69 | 81 | CCCCCCn1c(=O)c2c(ncn2C)n(C)c1=O [1-n-hexyltheobromine]
70 | 96 | Oc1cccc2ccccc12 [1-naphthol]
71 | 18 | O=C(Cl)c1cccc2ccccc12 [1-naphthoyl chloride]
72 | 139 | O=[N+]([O-])c1ccc(/C=C/c2ccccc2[N+](=O)[O-])cc1 [1-nitro-2-[(E)-2-(4-nitrophenyl)ethenyl]benzene]
73 | -81 | C=CCCCCCCC [1-nonene]
74 | -15 | CCCCCCCCO [1-octanol]
75 | -102 | C=CCCCCCC [1-octene]
76 | -79 | C#CCCCCCC [1-octyne]
77 | 46 | CCCCCCCCCCCCCCCO [1-pentadecanol]
78 | 10 | C#CCCCCCCCCCCCCC [1-pentadecyne]
79 | -76 | CCCCCS [1-pentanethiol]
